Converted amounts (≈) assume the structure as drawn. “And” between values parts separate entries of the source, which are not always exact repeats. Identical values can stand only once.
Assays:
[1] = (§1) DNDI: Cytotoxicity in vitro, against rat skeletal myoblast (L-6) cells; settings: L-6 cells (skeletal myoblasts), IC50
[2] = system: Trypanosoma cruzi; experiment: (§2) DNDI: Chagas in Vitro; type: functional, Tulahuen C4 (LacZ)
[3] = system: Trypanosoma cruzi; experiment: as §2; type: functional, organism-based, Tulahuen C4 (LacZ)
[4] = in vitro; settings: human, microsomes, t (1 / 2)
[5] = DNDI: Lipophilicity (gLogD) at pH 7.4; settings: buffer, pH 7.4, logD
[6] = DNDI: Solubility in phosphate buffer at pH 6.5 determined by nephelometry; settings: phosphate buffer, pH 6.5, Kinetic
[7] = in vitro; settings: human, microsomes
[8] = DNDI: Lipophilicity (gLogD) at pH 3; settings: buffer, pH 3, logD
[9] = DNDI: Solubility in 0.01M HCl at pH 2 determined by nephelometry; settings: 0.01M HCl, pH 2, Kinetic
[10] = biological target: Cytochrome P450 3A4 (Homo sapiens, UniProt P08684); experiment: DNDI: Human CYP3A4 inhibition determined using 6b-hydroxylation of testosterone
Sequence of Cytochrome P450 3A4 (P08684 whole entry): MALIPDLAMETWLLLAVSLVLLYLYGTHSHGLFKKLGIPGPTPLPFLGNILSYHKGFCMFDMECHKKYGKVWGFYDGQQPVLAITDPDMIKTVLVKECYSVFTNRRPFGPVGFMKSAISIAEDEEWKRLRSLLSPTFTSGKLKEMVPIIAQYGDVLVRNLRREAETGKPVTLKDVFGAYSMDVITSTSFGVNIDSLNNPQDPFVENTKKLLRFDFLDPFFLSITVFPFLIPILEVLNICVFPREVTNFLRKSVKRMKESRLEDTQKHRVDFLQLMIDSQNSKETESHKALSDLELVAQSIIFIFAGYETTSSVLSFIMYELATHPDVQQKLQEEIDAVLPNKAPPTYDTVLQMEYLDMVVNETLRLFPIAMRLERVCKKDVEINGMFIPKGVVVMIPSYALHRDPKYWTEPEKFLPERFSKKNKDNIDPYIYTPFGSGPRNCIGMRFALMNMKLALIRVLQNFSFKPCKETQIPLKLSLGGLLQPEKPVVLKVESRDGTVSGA

[11] = in vitro; settings: human, microsomes, EH
[12] = system: Trypanosoma brucei rhodesiense; experiment: DNDI: HAT in Vitro; type: functional, organism-based, ATCC 30027; settings: Trypanosoma brucei, ATCC 30027
[13] = system: L6; experiment: as §1; settings: L-6 cells (skeletal myoblasts)
[14] = system: Trypanosoma cruzi; experiment: DNDI: Chagas in vivo at 20 mg/kg, 20 days 2x; type: functional, Tulahuen Swiss po
[15] = Trypanosoma cruzi, Tulahuen C4 (LacZ)

| SMILES | IC90 [2] | IC90 [2, 15] [µM] | IC50 [3] | IC50 [3, 15] [µM] | half-life [4] [min] | chromatographic logD [5] | solubility kinetic [6] [mg/mL] | microsomal CLint [7] [µL/min/mg] | chromatographic logD [8] | solubility kinetic [9] [mg/mL] | IC50 [10] [µM] | hepatic extraction ratio [11] | IC50 [12] [µM] | IC50 [1] [µM] | IC50 [13] [µM] | PCR cure rate [14] [%] |
| --- | --- | --- | --- | --- | --- | --- | --- | --- | --- | --- | --- | --- | --- | --- | --- | --- |
| CO/N=C(\C)c1ccc(-n2ccnc2)c(NC(=O)c2cc(-c3ccccc3)cs2)c1 |  |  |  |  |  |  |  |  |  |  |  |  |  | > 100 |  |  |
| CC(=O)N(Cc1cnc[nH]1)c1cc(F)cc(-c2nc3ccccc3s2)c1 | > 1 µM | 0.941 | 0.534 µM | 0.486 |  |  |  |  |  |  |  |  |  | > 100 |  |  |
| CC(=O)N(Cc1c[nH]cn1)c1ccc(-c2ccc(F)cc2)cc1F |  |  |  |  |  |  |  |  |  |  |  |  |  | 69.9 |  |  |
| O=C(NCCc1c[nH]cn1)c1ccc(-c2ccccc2)cc1 |  |  |  | 0.305 |  |  |  |  |  |  |  |  |  | > 100 |  |  |
| CS(=O)(=O)N(Cc1cnc[nH]1)c1cc(F)cc(-c2nc3ccccc3s2)c1 | 0.569 µM and > 1 µM | 0.615 | 0.065 µM and 0.074 µM | 0.07 |  |  |  |  |  |  |  |  |  | 66.9 | 63.9 |  |
| CO/N=C(\C)c1ccc(-n2ccnc2)c(NC(=O)c2ccc(-c3ccccn3)cc2)c1 |  | > 1 |  | > 1 |  |  |  |  |  |  |  |  |  | > 100 |  |  |
| Cl.NCC(=O)N(Cc1cccnc1)c1ccc(-c2nc3ccccc3s2)cc1 |  |  |  |  |  |  |  |  |  |  |  |  |  |  |  | 20 |
| CCN(c1ccccc1)S(=O)(=O)c1ccc(Cl)c(NC(=O)CN(C)C2CCN(C)CC2)c1 | > 10 µM |  |  |  |  |  |  |  |  |  |  |  | 5.43 | 51.5 | 54.1 |  |
| O=C(NCCc1cnc[nH]1)c1ccc2cc(Br)ccc2c1 |  | > 1 |  | 0.186 | 105 |  | 0.0482 (≈ 140 µM) | 16.5 |  | 0.0643 (≈ 187 µM) | 3.28 |  | > 10 | 59.7 |  |  |
| CCN(Cc1cccnc1)c1ccc(-c2nc3ccccc3s2)cc1 |  | 0.632 |  | 0.351 |  |  |  |  |  |  |  |  |  | 54.5 |  |  |
| CCN(Cc1cccnc1)c1cccc(-c2nc3ccccc3s2)c1 |  |  |  |  | 11 | 4.9 | < 0.0016 | 159 | 4.1 | > 0.1 | 1 | 0.86 | > 10 | 41.9 |  |  |
| O=C(NCCc1cnc[nH]1)c1cnc(-c2ccccc2)cn1 |  |  |  |  | > 250 | 2.1 |  | < 7 | 1.3 | > 0.1 | 16 | < 0.23 | > 10 |  |  |  |
| CCN(Cc1cccnc1)c1cncc(-c2nc3ccccc3s2)c1 |  | 0.353 |  | 0.171 | 4.2 | 3.67 | 0.00352 (≈ 10.2 µM) | 414 | 1.56 | 0.0663 (≈ 191 µM) | 0.79 | 0.953 | > 10 | 31.8 |  |  |
| CCN(c1ccccc1)S(=O)(=O)c1ccc(Cl)c(NC(=O)CNC2CCCN(C)C2)c1.O=CO (stereo unspecified) |  | > 1 |  | > 1 | 19.5 | 1.56 | 0.0944 | 89 | -0.12 | 0.101 | 16.3 | 0.815 | 0.91 | 45.7 |  |  |
| CCN(CC)S(=O)(=O)c1ccc(-n2ccnc2)c(NC(=O)c2cnc(-c3ccccc3)nc2)c1 | 0.0235 µM and 0.00803 µM |  | 0.0065 µM and 0.0008 µM |  | 10 | 3.2 | 0.0016 (≈ 3.36 µM) | 166 | 2.7 | 0.05 (≈ 105 µM) | 20 | 0.9 | > 10 | > 100 |  |  |

Continued, in another order:

| IC90 [2] | IC90 [2, 15] [µM] | IC50 [3] | IC50 [3, 15] [µM] | half-life [4] [min] | chromatographic logD [5] | solubility kinetic [6] [mg/mL] | microsomal CLint [7] [µL/min/mg] | chromatographic logD [8] | solubility kinetic [9] [mg/mL] | IC50 [10] [µM] | hepatic extraction ratio [11] | IC50 [12] [µM] | SMILES | IC50 [1] [µM] | IC50 [13] [µM] | PCR cure rate [14] [%] |
| --- | --- | --- | --- | --- | --- | --- | --- | --- | --- | --- | --- | --- | --- | --- | --- | --- |
|  | 0.0625 |  | 0.02 | 1.3 | 4.49 | 0.00665 (≈ 16.5 µM) | 1320 | 3.04 | 0.0669 (≈ 166 µM) |  |  |  | O=C(C1CC1)N(Cc1cccnc1)c1cc(F)cc(-c2nc3ccccc3s2)c1 | 76.9 |  |  |
|  | 0.01 | 0.0032 µM and 0.0038 µM | 0.0049 |  |  |  |  |  |  |  |  |  | O=C(Nc1ccccc1-n1ccnc1)c1cnc(-c2ccccc2)s1 |  |  |  |
|  | 0.183 |  | 0.0535 |  |  |  |  |  |  |  |  |  | CC(=O)N(Cc1cccnc1)c1ccc(-c2ccc(F)cc2)cc1F |  |  |  |
|  | 0.015 |  | 0.00198 | 16 | 3 |  | 109 | 1.8 | > 0.1 |  |  |  | Cc1ccc(-n2ccnc2)c(NC(=O)c2cnc(-c3ccccc3)s2)c1 | 86.6 |  |  |
|  | 0.087 |  | 0.013 | 22 | 3 |  | 79 | 2.4 | > 0.1 | 10 | 0.75 | > 10 | CN(C)S(=O)(=O)c1ccc(-n2ccnc2)c(NC(=O)c2cnc(-c3ccccc3)s2)c1 | > 100 |  |  |
|  |  | 0.00022 µM and 0.0002 µM and 0.00019 µM | < 0.00014 | 11 | 3.9 | < 0.0016 | 157 | 2.8 | > 0.1 |  |  |  | CC(C)Cc1ccc(-n2ccnc2)c(NC(=O)c2cnc(-c3ccccc3)s2)c1 |  |  |  |
|  | 0.0585 |  | 0.023 | 5 | 3.6 |  | 346 | 3.2 | > 0.1 | < 0.25 | 0.93 | > 10 | CCS(=O)(=O)N(Cc1cccnc1)c1cccc(-c2nc3ccccc3s2)c1 | > 100 |  |  |
| 0.0146 µM and 0.006 µM |  | 0.001 µM | 0.002 | 7.9 | 3.18 | 0.00862 (≈ 23 µM) | 218 | 1.89 | > 0.0749 | 0.612 | 0.916 |  | CS(=O)(=O)N(Cc1cccnc1)c1ccc(-c2ccc(F)cc2)cc1F |  |  |  |
|  | 0.034 |  | 0.0129 |  |  |  |  |  |  |  |  |  | O=C(C1CC1)N(Cc1cccnc1)c1cncc(-c2nc3ccccc3s2)c1 |  |  |  |
|  | > 0.1 |  | 0.0597 |  |  |  |  |  |  |  |  |  | CS(=O)(=O)c1ccc(-n2ccnc2)c(NC(=O)c2cnc(-c3ccccc3)s2)c1 | > 100 |  |  |
| 0.064 µM and 0.625 µM |  |  | 0.017 |  |  |  |  |  |  |  |  |  | NCC(=O)N(Cc1cccnc1)c1ccc(-c2nc3ccccc3s2)cc1 |  |  |  |
|  | 0.0825 |  | 0.017 | 21.5 | > 4.5 | < 0.00032 | 80.5 | 3.49 | 0.0595 (≈ 183 µM) | 1 | 0.799 |  | CCN(Cc1cccnc1)c1ccc(-c2ccc(F)cc2)cc1F | 56.3 |  |  |
| 0.051 µM and 0.11 µM |  | 0.048 µM | 0.051 | 12.4 | 4.67 | 0.0031 (≈ 8.8 µM) | 138 | 1.98 | > 0.0705 | 0.576 | 0.874 |  | CCN(Cc1cnc[nH]1)c1cc(F)cc(-c2nc3ccccc3s2)c1 |  |  |  |
|  | 0.059 |  | 0.016 | 120 | 4.5 | 0.0125 | 14 | 3.3 | > 0.1 | < 0.25 | 0.36 | > 10 | CCOC(COc1ccc2cc(Br)ccc2c1)Cn1ccnc1.O=CO (stereo unspecified) | 44.2 |  |  |
|  | 0.355 |  | 0.0135 | 3.1 | 3.19 | 0.013 (≈ 31.8 µM) | 559 | 1.89 | > 0.0821 | 1.04 | 0.965 |  | CCS(=O)(=O)N(Cc1cccnc1)c1cncc(-c2nc3ccccc3s2)c1 | > 100 |  |  |
| 0.00278 µM | 0.003 | 0.0009 µM | 0.000617 |  |  |  |  |  |  |  |  | > 10 | CO/N=C(\C)c1ccc(-n2ccnc2)c(NC(=O)c2cnc(-c3ccccc3)s2)c1 |  |  | 0 |
|  | 0.0095 |  | 0.0027 | 17 | 3.2 |  | 102 | 2.4 | > 0.1 | 1.4 | 0.8 |  | CO/N=C(\C)c1ccc(-n2ccnc2)c(NC(=O)c2ccc(-c3cccs3)nc2)c1 | > 100 |  |  |
|  | 0.091 |  | 0.0405 |  |  |  |  |  |  |  |  |  | CS(=O)(=O)N(Cc1cccnc1)c1ccc(-c2nc3ccccc3s2)cc1 | > 100 |  |  |
|  | 0.098 |  | 0.047 | 9.7 | > 4.5 | < 0.00036 | 179 | 3.75 | 0.0572 (≈ 157 µM) | 0.775 | 0.898 |  | CCN(Cc1cccnc1)c1cc(F)cc(-c2nc3ccccc3s2)c1 | 57.7 |  |  |
|  | > 0.1 |  | 0.029 | 5 | 4 |  | 380 | 3.4 | > 0.1 |  |  | > 10 | O=C(C1CC1)N(Cc1cccnc1)c1cccc(-c2nc3ccccc3s2)c1 | 60.6 |  |  |
|  | 0.204 |  | 0.0675 | 97 | 3.5 |  | 18 | 2.3 | > 0.1 |  |  |  | CO/N=C(\C)c1ccc(-n2ccnc2)c(NC(=O)c2sc(-c3ccccc3)nc2C)c1 | > 100 |  |  |

— ChEMBL document CHEMBL2448688, “Selection and optimization of hits from a high-throughput phenotypic screen against Trypanosoma cruzi. Exported from HEOS 25-Oct-2013. See also related datasets CHEMBL3137440 and CHEMBL3137386”
